Tests used:
Alternaria solani = Alternaria solani / tomato / leaf disc (early blight); format: in vivo; settings: foliar, tomato leaf disks cv. Baby, inoculated 2 days after application, assessed 5-7 days after application, read-out: control of Alternaria solani (percent disease control compared to untreated)
Procedure: Example B1: Alternaria solani/Tomato/Leaf Disc (Early Blight) Tomato leaf disks cv. Baby are placed on agar in multiwell plates (24-well format) and sprayed with the formulated test compound diluted in water. The leaf disks are inoculated with a spore suspension of the fungus 2 days after application. The inoculated leaf disks are incubated at 23° C./21° C. […] […]-185.

[1] = tested on: Glomerella lagenarium (Colletotrichum lagenarium); experiment: Glomerella lagenarium (Colletotrichum lagenarium) / liquid culture (anthracnose); format: cell-based; settings: Colletotrichum orbiculare, PDB potato dextrose broth, 24° C., 3-4 days after application, read-out: control of Glomerella lagenarium (inhibition of growth, photometric)
Summary of the method: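 Conidia from cryogenic storage suspended in potato dextrose broth and added to DMSO compound solution in plates. Incubated at 24° C; growth inhibition read photometrically 3-4 days after application.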

[2] = tested on: Blumeria graminis f. sp. tritici (Erysiphe graminis f. sp. tritici); experiment: Blumeria graminis f. sp. tritici / wheat / leaf disc preventative (powdery mildew on wheat); format: in vivo; settings: foliar, wheat leaf segments cv. Kanzler, inoculated 1 day after application, assessed 6-8 days after application, read-out: control of Blumeria graminis f. sp. tritici (percent disease control compared to untreated)
Description: Example B4: Blumeria graminis f. sp. tritici (Erysiphe graminis f. sp. tritici)/Wheat/Leaf Disc Preventative (Powdery Mildew on Wheat) Wheat leaf segments cv. Kanzler are placed on agar in a multiwell plate (24-well format) and sprayed with the formulated test compound diluted in water. The leaf disks are inoculated by shaking powdery mildew infected plants above the test plates 1 day after application. […] […]-192.

[3] = tested on: Phaeosphaeria nodorum (Septoria nodorum); experiment: Phaeosphaeria nodorum (Septoria nodorum) / wheat / leaf disc preventative (glume blotch); format: in vivo; settings: Parastagonospora nodorum, foliar, wheat leaf segments cv. Kanzler, inoculated 2 days after application, assessed 5-7 days after application, read-out: control of Phaeosphaeria nodorum (percent disease control compared to untreated)
Summary of the method: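 Wheat cv. Kanzler leaf discs on agar were sprayed with formulated compound diluted in water and inoculated with spores 2 days later. Discs were kept at 20° C, 75% rh, 12 h light/dark; percent disease control versus untreated was scored 5-7 days after application.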

[4] = tested on: Monographella nivalis (Microdochium nivale); experiment: Monographella nivalis (Microdochium nivale) / liquid culture (foot rot cereals); format: cell-based; settings: PDB potato dextrose broth, 24° C., 4-5 days after application, read-out: control of Monographella nivalis (inhibition of growth, photometric)
Summary of the method: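 Cryostored M. nivalis conidia mixed into potato dextrose broth and added to 96-well plates holding test compound in DMSO. Incubated at 24° C; growth inhibition read photometrically 4-5 days after application.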

[5] = tested on: Mycosphaerella arachidis (Cercospora arachidicola); experiment: Mycosphaerella arachidis (Cercospora arachidicola) / liquid culture (early leaf spot); format: cell-based; settings: PDB potato dextrose broth, 24° C., 4-5 days after application, read-out: control of Mycosphaerella arachidis (inhibition of growth, photometric)
Summary of the method: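 Conidia from cryogenic storage suspended in potato dextrose broth and added to compound in DMSO. Incubation at 24° C; growth inhibition read photometrically 4-5 days after application.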

[6] = tested on: Magnaporthe grisea (Pyricularia oryzae); experiment: whole plant or invertebrate; format: in vivo; settings: foliar, read-out: control of Magnaporthe grisea (percent disease control compared to untreated)
Pyrenophora teres = Pyrenophora teres / barley / leaf disc preventative (net blotch); format: in vivo; settings: foliar, barley leaf segments cv. Hasso, inoculated 2 days after application, assessed 5-7 days after application, read-out: control of Pyrenophora teres (disease control compared to untreated)
Summary of the method: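 Barley cv. Hasso leaf discs on agar were sprayed with diluted formulated compound, then inoculated with spore suspension 2 days later. Incubation at 20 °C, 65% rh, 12 h light/dark; disease control versus untreated assessed 5-7 days after application.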

Sclerotinia sclerotiorum = Sclerotinia sclerotiorum / liquid culture (cottony rot); format: cell-based; settings: PDB potato dextrose broth, mycelia fragments, 24° C., 3-4 days after application, read-out: control of Sclerotinia sclerotiorum (inhibition of growth, photometric)
Procedure: Example B14: Sclerotinia sclerotiorum/Liquid Culture (Cottony Rot) Mycelia fragments of a newly grown liquid culture of the fungus are directly mixed into nutrient broth (PDB potato dextrose broth). After placing a (DMSO) solution of test compound into a microtiter plate (96-well format) the nutrient broth containing the fungal material is added. The test plates are incubated at 24° C. and the inhibition of growth is determined photometrically 3-4 days after application.

[7] = tested on: Mycosphaerella graminicola (Septoria tritici); experiment: Mycosphaerella graminicola (Septoria tritici) / liquid culture (Septoria blotch); format: cell-based; settings: Zymoseptoria tritici, PDB potato dextrose broth, 24° C., 4-5 days after application, read-out: control of Mycosphaerella graminicola (inhibition of growth, photometric)
Summary of the method: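 Conidia from cryogenic storage were mixed into potato dextrose broth and added to test compound in DMSO. Plates were incubated at 24° C, and growth inhibition was read photometrically 4-5 days after application.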

[8] = tested on: Puccinia recondita f. sp. tritici; experiment: Puccinia recondita f. sp. tritici / wheat / leaf disc curative (brown rust); format: in vivo; settings: foliar, wheat leaf segments cv. Kanzler, compound applied 1 day after inoculation, assessed 6-8 days after application, read-out: control of Puccinia recondita f. sp. tritici, curative (percent disease control compared to untreated)
Procedure: Example B10: Puccinia recondita f. sp. tritici/Wheat/Leaf Disc Curative (Brown Rust) Wheat leaf segments cv. Kanzler are placed on agar in multiwell plates (24-well format). The leaf segments are inoculated with a spore suspension of the fungus. Plates are stored in darkness at 19° C. and 75% rh. The formulated test compound diluted in water is applied 1 day after inoculation. […] […]-185.

[9] = tested on: Puccinia recondita f. sp. tritici; experiment: Puccinia recondita f. sp. tritici / wheat / leaf disc preventative (brown rust); format: in vivo; settings: foliar, wheat leaf segments cv. Kanzler, inoculated 1 day after application, assessed 7-9 days after application, read-out: control of Puccinia recondita f. sp. tritici, preventative (percent disease control compared to untreated)
Summary of the method: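 Wheat leaf segments (cv. Kanzler) on agar were sprayed with formulated compound, then inoculated with spores 1 day later. Segments were incubated at 19 °C, 75% rh with 12 h light/dark. Percent disease control versus untreated was scored 7–9 days after application.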

[10] = tested on: Botryotinia fuckeliana (Botrytis cinerea); experiment: Botryotinia fuckeliana (Botrytis cinerea) / liquid culture (gray mould); format: cell-based; settings: Vogels broth, 24° C., 3-4 days after application, read-out: control of Botryotinia fuckeliana (inhibition of growth, photometric)
Summary of the method: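 Botrytis cinerea conidia in Vogels broth were added to compound supplied as DMSO solution. Plates were incubated at 24 °C, and growth inhibition was read photometrically 3-4 days after application.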

CCOc1ccc(Nc2cc(F)cc(F)c2)nc1C(=O)NC1CCC1(C)C (stereo not drawn) [Compound P-44, 6-(3,5-difluoroanilino)-N-(2,2-dimethylcyclobutyl)-3-ethoxy-pyridine-2-carboxamide]
≥ 80%: pest or weed control at 200 ppm (Alternaria solani) | inhibition at 20 ppm [1] | pest or weed control at 200 ppm [2] | pest or weed control at 200 ppm [3] | inhibition at 20 ppm [4] | inhibition at 20 ppm [5] | pest or weed control at 200 ppm [6] | pest or weed control at 200 ppm (Pyrenophora teres) | inhibition at 20 ppm (Sclerotinia sclerotiorum) | inhibition at 20 ppm [7]

COc1ccc(Nc2cc(F)nc(F)c2)nc1C(=O)NC(C)(C)C [Compound P-91, N-tert-butyl-6-[(2,6-difluoro-4-pyridyl)amino]-3-methoxy-pyridine-2-carboxamide]
≥ 80%: pest or weed control at 200 ppm (Alternaria solani) | inhibition at 20 ppm [1] | pest or weed control at 200 ppm [2] | inhibition at 20 ppm [4] | pest or weed control at 200 ppm [8] | pest or weed control at 200 ppm [9] | pest or weed control at 200 ppm [6] | inhibition at 20 ppm [7]

COc1ccc(Nc2cc(F)nc(F)c2)nc1C(=O)NC1(C)CCC1 [Compound P-127, 6-[(2,6-difluoro-4-pyridyl)amino]-3-methoxy-N-(1-methylcyclobutyl)pyridine-2-carboxamide]
≥ 80%: pest or weed control at 200 ppm (Alternaria solani) | inhibition at 20 ppm [1] | pest or weed control at 200 ppm [2] | inhibition at 20 ppm [4] | pest or weed control at 200 ppm [8] | pest or weed control at 200 ppm [9] | pest or weed control at 200 ppm [6] | pest or weed control at 200 ppm (Pyrenophora teres) | inhibition at 20 ppm [7]

COc1ccc(Nc2cccc(F)c2)nc1C(=O)NCC(C)(C)C [Compound P-139, N-(2,2-dimethylpropyl)-6-(3-fluoroanilino)-3-methoxy-pyridine-2-carboxamide]
≥ 80%: pest or weed control at 200 ppm (Alternaria solani) | inhibition at 20 ppm [10] | inhibition at 20 ppm [1] | pest or weed control at 200 ppm [2] | pest or weed control at 200 ppm [3] | inhibition at 20 ppm [4] | inhibition at 20 ppm [5] | pest or weed control at 200 ppm [9] | pest or weed control at 200 ppm [6] | pest or weed control at 200 ppm (Pyrenophora teres) | inhibition at 20 ppm (Sclerotinia sclerotiorum) | inhibition at 20 ppm [7]

COc1ccc(Nc2cc(F)c(F)c(F)c2)nc1C(=O)NCC(C)(C)C [Compound P-145, N-(2,2-dimethylpropyl)-3-methoxy-6-(3,4,5-trifluoroanilino)pyridine-2-carboxamide]
≥ 80%: pest or weed control at 200 ppm (Alternaria solani) | inhibition at 20 ppm [10] | inhibition at 20 ppm [1] | pest or weed control at 200 ppm [2] | pest or weed control at 200 ppm [3] | inhibition at 20 ppm [4] | inhibition at 20 ppm [5] | pest or weed control at 200 ppm [9] | pest or weed control at 200 ppm [6] | pest or weed control at 200 ppm (Pyrenophora teres) | inhibition at 20 ppm (Sclerotinia sclerotiorum) | inhibition at 20 ppm [7]

COc1ccc(Nc2cc(F)cc(Cl)c2)nc1C(=O)NC(C)(C)C [Compound P-152, N-tert-butyl-6-(3-chloro-5-fluoro-anilino)-3-methoxy-pyridine-2-carboxamide]
≥ 80%: pest or weed control at 200 ppm (Alternaria solani) | inhibition at 20 ppm [10] | inhibition at 20 ppm [1] | pest or weed control at 200 ppm [2] | pest or weed control at 200 ppm [3] | inhibition at 20 ppm [4] | inhibition at 20 ppm [5] | pest or weed control at 200 ppm [9] | pest or weed control at 200 ppm [6] | pest or weed control at 200 ppm (Pyrenophora teres) | inhibition at 20 ppm (Sclerotinia sclerotiorum) | inhibition at 20 ppm [7]

COc1ccc(Nc2ccnc(F)c2)nc1C(=O)NC(C)(C)C [Compound P-156, N-tert-butyl-6-[(2-fluoro-4-pyridyl)amino]-3-methoxy-pyridine-2-carboxamide]
≥ 80%: inhibition at 20 ppm [1] | pest or weed control at 200 ppm [2] | pest or weed control at 200 ppm [8] | pest or weed control at 200 ppm [9] | pest or weed control at 200 ppm [6]

COc1ccc(Nc2cc(F)cc(F)c2)nc1C(=O)NC1(C(C)(C)C)CCC1 [Compound P-180, N-(1-tert-butylcyclobutyl)-6-(3,5-difluoroanilino)-3-methoxy-pyridine-2-carboxamide]
≥ 80%: pest or weed control at 200 ppm (Alternaria solani) | inhibition at 20 ppm [1] | pest or weed control at 200 ppm [2] | pest or weed control at 200 ppm [3] | inhibition at 20 ppm [4] | inhibition at 20 ppm [5] | pest or weed control at 200 ppm [9] | pest or weed control at 200 ppm [6] | pest or weed control at 200 ppm (Pyrenophora teres) | inhibition at 20 ppm (Sclerotinia sclerotiorum) | inhibition at 20 ppm [7]

COc1ccc(Nc2cc(F)nc(F)c2)nc1C(=O)NC1(C(C)(C)C)CCC1 [Compound P-185, N-(1-tert-butylcyclobutyl)-6-[(2,6-difluoro-4-pyridyl)amino]-3-methoxy-pyridine-2-carboxamide]
≥ 80%: pest or weed control at 200 ppm (Alternaria solani) | pest or weed control at 200 ppm [2] | inhibition at 20 ppm [4] | pest or weed control at 200 ppm [8] | pest or weed control at 200 ppm [9] | pest or weed control at 200 ppm [6] | pest or weed control at 200 ppm (Pyrenophora teres) | inhibition at 20 ppm [7]
